Experimental data as given in patent US9353082B2, “Pharmaceutical compounds” (BIAL—PORTELA & CA, S.A., priority 2008, dated 2016).

Experiments:
carboxylesterase (CE) [1] = assay: Carboxylesterase (CE) activity in rat liver microsomes (LVms), p-nitrophenyl acetate; assay type: biochemical; conditions: 10 uM compound, read 10 min after substrate, remaining CE activity
Method: (§1) FAAH inhibition was determined as described above. Inhibition of monoacylglycerol lipase (MAGL) and carboxylesterase (CE) was performed according to the protocols described below. The controls for both in vitro and in vivo were the reaction mix minus the test compounds. Therefore, a low value in Table 2 below for the test compounds indicates a strong inhibitor.
(§2) CE activity measurement is based on the formation of p-nitrophenol from p-nitrophenyl acetate. Briefly, in 96-well plates 8 μg/ml of rat or mouse liver microsomes (LVms) were incubated with 10 μM FAAH inhibitors for 15 min and then the substrate, p-nitrophenyl acetate, was added to a final concentration of 1 mM. The plate was read at 405 nm 10 min after substrate addition for the appearance of p-nitrophenol using a spectrophotometer. The carboxylesterase activity in microsome extracts without inhibitor added were set at 100% as control and the remaining CE activities after incubation with inhibitors were calculated relative to the control.

carboxylesterase (CE) [2] = assay: Carboxylesterase (CE) activity in mouse liver microsomes (LVms), p-nitrophenyl acetate; assay type: biochemical; conditions: 10 uM compound, read 10 min after substrate, remaining CE activity
Method: as §1, §2

FAAH [3] = molecular target: T1, FAAH (Rattus norvegicus, UniProt P97612); assay: In vitro FAAH activity in rat brain membranes, 3H-AEA substrate, % of control; assay type: biochemical, Wistar rats; conditions: low value = strong inhibitor; for FAAH 100 nM: 100 nM compound; for In Vitro FAAH activity, 100 nM: 100 nM test compound
T1 construct: Frozen brains (without cerebellum) from Wistar rats were used; from tissue; host or cells: Wistar rat brain (without cerebellum), washed membrane pellets
T1 sequence (P97612 1-579): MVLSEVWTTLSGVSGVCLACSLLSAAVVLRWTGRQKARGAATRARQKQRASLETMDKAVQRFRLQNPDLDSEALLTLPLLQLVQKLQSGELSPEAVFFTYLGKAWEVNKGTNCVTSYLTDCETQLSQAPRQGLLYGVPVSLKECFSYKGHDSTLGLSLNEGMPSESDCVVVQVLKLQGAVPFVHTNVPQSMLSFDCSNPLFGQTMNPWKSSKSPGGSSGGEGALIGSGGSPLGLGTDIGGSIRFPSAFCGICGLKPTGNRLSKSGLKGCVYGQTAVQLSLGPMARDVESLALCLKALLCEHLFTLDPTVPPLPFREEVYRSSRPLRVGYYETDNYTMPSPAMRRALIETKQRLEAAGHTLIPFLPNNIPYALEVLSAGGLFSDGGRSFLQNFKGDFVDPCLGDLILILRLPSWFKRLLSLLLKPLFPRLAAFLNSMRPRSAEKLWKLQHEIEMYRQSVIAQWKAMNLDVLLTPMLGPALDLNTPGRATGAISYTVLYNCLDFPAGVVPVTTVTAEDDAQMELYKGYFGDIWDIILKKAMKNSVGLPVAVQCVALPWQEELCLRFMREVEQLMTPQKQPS
In short: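 Wistar rat brain membranes (5 μg protein) preincubated 15 min at 37 °C with compound at 10 μM or 0.1 μM (0.1% DMSO), then 2 μM AEA including 3H-AEA with 0.1% BSA, Tris pH 7.6, 10 min. 3H-ethanolamine counted after charcoal stop; % of no-compound control after blank subtraction.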

[4] = molecular target: T2, monoacylglycerol lipase (MAGL) (Rattus norvegicus, UniProt Q8R431); assay: MAGL activity in rat cerebella cytosol (CRBcyt), hydrolysis of [3H] 2-OG; assay type: biochemical, WISTAR rats; conditions: 12.5 uM compound, remaining MAGL activity
T2 construct: cerebella cytosol (CRBcyt) fractions, previously obtained from adult WISTAR rats; from tissue; host or cells: adult Wistar rat cerebella, cytosol fraction
T2 sequence (Q8R431 1-303): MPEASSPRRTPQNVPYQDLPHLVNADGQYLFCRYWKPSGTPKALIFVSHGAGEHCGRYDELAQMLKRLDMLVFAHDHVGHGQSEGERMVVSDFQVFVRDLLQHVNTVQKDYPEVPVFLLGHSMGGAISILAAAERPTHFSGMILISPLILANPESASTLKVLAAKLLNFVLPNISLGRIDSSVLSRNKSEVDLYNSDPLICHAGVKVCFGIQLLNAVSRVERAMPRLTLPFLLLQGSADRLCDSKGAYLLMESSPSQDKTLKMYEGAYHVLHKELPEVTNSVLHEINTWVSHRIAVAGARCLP
Method: as §1
MAGL activity measurement was based on rate of hydrolysis of [^3H] 2-OG (glycerol labeled) as substrate. Briefly, cerebella cytosol (CRBcyt) fractions, previously obtained from adult WISTAR rats, were diluted to appropriate assay protein concentrations in Tris-HCl buffer (10 mM, pH 7.2) containing 1 mM EDTA, and were added to assay tubes containing test compound. Blanks contained assay buffer instead of cytosol samples were used as control. […] The final assay contained 0.125% w v^−1 fatty acid-free BSA. After the incubation phase, reactions were stopped by adding 400 μL chloroform:methanol (1/1 v v^−1), vortex mixing the tubes two times and placing them on ice. Phases were separated by centrifugation and 200 μL aliquots of the methanol/buffer phase were taken and tritium content assayed by liquid scintillation spectroscopy with quench correction.

FAAH [5] = molecular target: T3, FAAH (Mus musculus, UniProt O08914); assay: In vivo FAAH inhibition after oral dosing, remaining activity in brain homogenate (BRh, central nervous tissue); design: species or system NMRI mice; conditions: for In Vivo BRh 3 mg · kg · 8 h (remaining FAAH activity) / FAAH BRh 3 mg · kg · 8 h: 3 mg/kg oral; for FAAH BRh 3 mg · kg · 8 h: in vivo, mouse brain, remaining enzymatic activity
T3 construct: A fragment of liver, left lung lobe and brain without cerebellum were removed; from tissue; host or cells: male NMRI mice; brain (without cerebellum) and liver homogenates
T3 sequence (O08914 1-579): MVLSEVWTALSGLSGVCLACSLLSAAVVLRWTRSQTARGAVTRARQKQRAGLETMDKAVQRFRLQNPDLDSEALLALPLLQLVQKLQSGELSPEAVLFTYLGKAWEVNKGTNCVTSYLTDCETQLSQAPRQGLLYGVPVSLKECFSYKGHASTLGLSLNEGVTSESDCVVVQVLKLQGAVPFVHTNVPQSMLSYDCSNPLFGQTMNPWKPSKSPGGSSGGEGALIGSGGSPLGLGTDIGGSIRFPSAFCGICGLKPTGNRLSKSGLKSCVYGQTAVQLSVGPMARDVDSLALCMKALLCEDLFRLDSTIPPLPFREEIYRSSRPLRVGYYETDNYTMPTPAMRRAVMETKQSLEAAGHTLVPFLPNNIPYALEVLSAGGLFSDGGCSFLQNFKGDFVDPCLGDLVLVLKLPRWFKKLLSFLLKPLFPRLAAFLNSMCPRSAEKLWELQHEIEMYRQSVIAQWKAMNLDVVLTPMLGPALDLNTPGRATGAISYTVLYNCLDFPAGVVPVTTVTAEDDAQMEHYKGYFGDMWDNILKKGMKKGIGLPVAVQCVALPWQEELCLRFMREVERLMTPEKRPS
In short: (§3)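 Male NMRI mice, fasted overnight, got 30 or 3 mg/kg compound orally (0.5% CMC suspension or water) and were compared with vehicle controls. Brain (no cerebellum) and liver homogenates were incubated with 2 μM AEA plus 5 nM 3H-AEA at 37 °C, 10 min for brain and 7 min for liver. Remaining FAAH activity is % of vehicle after blank subtraction.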

FAAH [6] = molecular target: T3, FAAH; assay: In vivo FAAH inhibition after oral dosing, remaining activity in liver homogenate (LVh, peripheral tissue); design: species or system NMRI mice; conditions: for FAAH LVh 3 mg · kg · 8 h: in vivo, mouse liver, remaining enzymatic activity; for FAAH LVh 3 mg · kg · 8 h / In Vivo LVh 3 mg · kg · 8 h (remaining FAAH activity): 3 mg/kg oral
In short: as §3

[7] = rat brain membranes, 100 = no measurable inhibition
[8] = brain homogenate, low value = strong inhibitor
[9] = liver homogenate, low value = strong inhibitor

Structure (SMILES) | CE Rat LVms 10 uM 10 min (carboxylesterase (CE) [1]) | CE Mou LVms 10 uM 10 min (carboxylesterase (CE) [2]) | FAAH 100 nM (FAAH [3]; [7]) | In Vitro FAAH activity, 100 nM (FAAH [3]) | MAGL Rat CRBcyto 12.5 uM 8 min [4] | In Vivo BRh 3 mg · kg · 8 h (remaining FAAH activity) (FAAH [5]; [8]) | FAAH BRh 3 mg · kg · 8 h (FAAH [5]) | FAAH LVh 3 mg · kg · 8 h (FAAH [6]) | In Vivo LVh 3 mg · kg · 8 h (remaining FAAH activity) (FAAH [6]; [9]) | further results
CN(C(=O)n1nnc2cc(Br)ccc21)C1CCCCC1 [Compound 97, 5-bromo-N-cyclohexyl-N-methyl-1H-benzo[d][1,2,3]triazole-1-carboxamide] | 41.1 % of control | 50.7 % of control | 0 % of control | 0 % of control | – | – | – | – | – | –
CN(C(=O)n1cnc(-c2ccc3oc(=O)[nH]c3c2)c1)C1CCCC1 [Compound 564, N-cyclopentyl-N-methyl-4-(2-oxo-2,3-dihydrobenzo[d]oxazol-5-yl)-1H-imidazole-1-carboxamide] | 96.1 % of control | 87.4 % of control | – | – | 91.6 % of control | 37.6 % of control | 37.6 % of control | 2.3 % of control | 2.3 % of control | –
CN(C(=O)n1cnc(-c2ccc[n+]([O-])c2)c1)C1CCCCC1 [Compound no. 362, 3-(1-(cyclohexyl(methyl)carbamoyl)-1H-imidazol-4-yl)pyridine 1-oxide] | – | – | – | – | – | – | – | – | – | In Vivo BRh 3 mg·kg 8 h (remaining FAAH activity, % of control) (FAAH [5]; brain homogenate, 3 mg/kg, 8 h after dosing, low value = strong inhibitor): 1.6 % of control; In Vivo LVh 3 mg·kg 8 h (remaining FAAH activity, % of control) (FAAH [6]; liver homogenate, 3 mg/kg, 8 h after dosing, low value = strong inhibitor): 1.7 % of control; In Vitro 100 nM (FAAH activity, % of control) (FAAH [3]; rat brain membranes, compound at 100 nM): 78.2 % of control

More lines, main results first:

CE Rat LVms 10 uM 10 min (carboxylesterase (CE) [1]) | CE Mou LVms 10 uM 10 min (carboxylesterase (CE) [2]) | FAAH 100 nM (FAAH [3]; [7]) | In Vitro FAAH activity, 100 nM (FAAH [3]) | Structure (SMILES) | MAGL Rat CRBcyto 12.5 uM 8 min [4] | In Vivo BRh 3 mg · kg · 8 h (remaining FAAH activity) (FAAH [5]; [8]) | FAAH BRh 3 mg · kg · 8 h (FAAH [5]) | FAAH LVh 3 mg · kg · 8 h (FAAH [6]) | In Vivo LVh 3 mg · kg · 8 h (remaining FAAH activity) (FAAH [6]; [9]) | further results
87.5 % of control | 95.4 % of control | – | – | COc1ccc(N(C)C(=O)n2cnc(-c3ccc4ccccc4c3)c2)cc1 [Compound 16, N-(4-methoxyphenyl)-N-methyl-4-(naphthalen-2-yl)-1H-imidazole-1-carboxamide] | – | – | – | – | – | FAAH 10 uM (FAAH [3]; 10 uM compound, rat brain membranes, 100 = no measurable inhibition): 24.7 % of control; In Vitro FAAH activity, 10 uM (FAAH [3]; 10 uM test compound): 24.7 % of control
33 % of control | 31 % of control | 0.1 % of control | 0.1 % of control | O=C(NCCCCc1ccccc1)n1nnc2ccccc21 [Compound 85, N-(4-phenylbutyl)-1H-benzo[d][1,2,3]triazole-1-carboxamide] | – | – | – | – | – | –
97.8 % of control | 88.6 % of control | – | – | CN(C(=O)n1cnc(-c2ccc(S(C)(=O)=O)cc2)c1)C1CCN(Cc2ccccc2)CC1 [Compound 567, N-(1-benzylpiperidin-4-yl)-N-methyl-4-(4-(methylsulfonyl)phenyl)-1H-imidazole-1-carboxamide] | 94.2 % of control | 87.8 % of control | 87.8 % of control | 6.3 % of control | 6.3 % of control | –
